Read-outs that look alike come from different tables or passages of the source.
How the values were obtained:
[1] = Pharmacokinetic study via oral administration in mice, ocular concentrations; type: in vivo, mice C57BL/6; settings: for Tmax: C57BL/6, mouse, eye, po; for Tmax / Eye CMax: mice, p.o. 50 mg/kg in VitE-TPGS 20% in sodium bicarbonate buffer (0.1M); for Eye Exposure 50 mg/kg p.o. AUC: Table 3, repeats the eye exposure of Table 2
Method: (§1) The pharmacokinetic study of the chemical compounds (C) following the oral administration thereof was conducted using mice C57BL/6 (January, 53940 The Genest Saint Isle, France). The chemical compounds derived from norbixin (C) were administered at a dose of 50 mg/kg of body weight. After administration, the blood was sampled at the tail at t=0.25 h; 0.5 h; 1 h; 3 h; 6 h and 8 h. The blood samples were centrifuged and the plasmas taken. The dosage of the plasma samples made it possible to determine pharmacokinetic parameters, namely Cmax, which corresponds to the maximum concentration observed after the administration of the molecule, Tmax which is the time required to reach maximum concentration after administration of the molecule and the AUC: the area under the curve which corresponds to the plasma exposure (FIG. 2).
In parallel, the ocular concentrations of the chemical compounds derived from norbixin (C) were dosed in the following way (FIG. 1): both eyes of each mouse were taken in Precellys tubes and stored at −80° C. until the time of dosing. The eyes are then ground in the Precellys tubes with a bench homogenizer, Fast-prep (Fischer Scientific, Hampton, United States) in a mixture of organic solvents, in a first step with 500 μL of chloroform/methanol (1/1, v/v) then 500 μL of chloroform/dichloromethane (1/1, v/v). The supernatants are recovered at each step and transferred to a 96-well plate of 2 mL.
For the quantification of the chemical compounds C, a calibration curve is carried out with 8 standards (5 to 5,000 ng/mL) in the same organic solvent mixtures and transferred (100 μL) to the 96-well plate of 2 mL.
The supernatants and standards are evaporated in a EZ2 (Genevac, Ipswich, United Kingdom), without heating, then taken with 100 μL of DMSO/methanol (20:80, v/v) before being transferred to a 96-well plate of 200 μL.
(§2) The LC-MSMS analysis is carried out with a HPLC 1200 Infinity chain (Agilent Technologies, Santa-Clara, United States), a UV detector and a mass spectrometer QQQ6420 (Agilent Technologies Santa-Clara, United States). The injection volume is 5 μL. The chemical compounds C are eluted on an inverse phase column C18 (2.1*50 mm, particles 3 μm; Ace-C18-Excel, AIT) with a gradient of acetonitrile and water (containing 0.1% formic acid) and a flow rate of 0.3 mL/min. The conditions of the gradient can change according to the chemical compound C analyzed. The UV detector analyzes at 460 nm and the mass spectrometer analyzed in Mode MRM—Positive.
(§3) Table 2 discloses the pharmacokinetic results of the chemical compounds C following the administration p.o. 50 mg/kg in D-α-Tocopheryl polyethylene glycol 1000 succinate (VitE-TPGS) 20% in a sodium bicarbonate buffer (0.1M).

[2] = Pharmacokinetic study via oral administration in mice, plasma concentrations; type: in vivo, mice C57BL/6
Method: as §1, §2, §3

[3] = system: primary cultures of RPE of adult pigs; assay: In vitro photoprotection of RPE cells illuminated with blue light in the presence of A2E; type: cell-based, pig; settings: Sus scrofa, RPE, A2E 30 μM, survival 24 h after illumination; for viability at 5 µM: 5 μM compound; for viability at 10 µM: 10 μM compound; for viability at 20 µM: 20 μM compound
Text: In addition to better distribution in the target-tissue, selecting new compounds must also be based on good photo-protective activity that limits the loss of the cells of the RPE and thus reducing the retinal degeneration observed during the AMD and other degenerative diseases such as Retinitis pigmentosa and Stargardt's disease. At the cellular level, on cultures of cells the RPE coming from pig retina, Fontaine et al. (2016) have shown that a treatment with norbixin (BIO201) protects the cells of the RPE against apoptosis following an illumination in the presence of A2E (80% survival 24 h after exposure). This same screening test according to the percentage of photoprotection was used so as to determine its modulation by and the chemical compounds derived from norbixin (C) object of the present invention in comparison with the photo-protective effect of norbixin and characterize these modulations from a statical standpoint.
The test in vitro described hereinabove and intended to study the photo-protective effect of norbixin was used so as to quantify the photo-protective effects of the various chemical compounds derived from norbixin (C) on the cells of the RPE illuminated with blue light in the presence of A2E (FIG. 3). The photo-protective effect of the molecules was evaluated in a phototoxicity cellular model induced by treatment by A2E followed by an illumination with blue light. The term “blue radiation” means the radiation corresponding to the blue band of the visible light spectrum, i.e. of a wavelength comprised between 435 and 490 nm. This model uses primary cultures of RPE of adult pigs. The cell survival is quantified thanks to a test of cellular viability. At −48 h the compounds to be tested (in solution at 5 mM in the DMSO) are added to obtain the final concentrations of 1 to 20 μM) then at −19 h of the A2E (final concentration 30 μM) and the cells (time 0 h) are illuminated. 24 h after the survival of the cells is measured. The acquisition of images, as well as the processing thereof, are carried out using a fluorescence microscope controlled by the Metamorph software and a dedicated quantification program. The experiments are conducted on a 96-well microplate in quadruplicate and the experiment is reproduced at least four times. The results are expressed in the form of a ratio representing the number of living cells in the wells treated by the molecules to be tested, divided by the number of living cells in the controlled wells (treated by the dilution medium without A2E). This test made it possible hereinabove to reveal the photo-protective activity of norbixin (Fontaine et al. 2016).

[4] = C57BL/6, mouse, in vivo, po, 50 mg/kg

| Compound | Tmax [1] | Eye Exposure 50 mg/kg p.o. AUC [1] | Eye CMax [1] | Cmax [2, 4] | Plasma Exposure [2, 4] | Tmax [2, 4] | viability at 5 µM [3] | viability at 10 µM [3] | viability at 20 µM [3] | Cmax ([2]; C57BL/6, mouse, in vivo, po, mice, p.o. 50 mg/kg in VitE-TPGS 20% in sodium bicarbonate buffer (0.1M), read-out: Plasma CMax) | Tmax ([2]; C57BL/6, mouse, in vivo, po, mice, p.o. 50 mg/kg in VitE-TPGS 20% in sodium bicarbonate buffer (0.1M), read-out: Plasma TMax) | Plasma Exposure ([2]; mice, p.o. 50 mg/kg in VitE-TPGS 20% in sodium bicarbonate buffer (0.1M), area under the curve) |
| --- | --- | --- | --- | --- | --- | --- | --- | --- | --- | --- | --- | --- |
| COCCNC(=O)/C=C/C(C)=C/C=C/C(C)=C/C=C/C=C(C)/C=C/C=C(C)\C=C\C(=O)O [C1, 1-[2-methoxyethanamido](2E,4E,6E,8E,10E,12E,14E,16Z,18E)-4,8,13,17-tetramethylicosa-2,4,6,8,10,12,14,16,18-nonaenedioate] | 30 min | 26.6 ng · h/eye | 10.7 ng/eye | 18700 ng/mL | 52.66 µg·h/mL | 30 min | 55% | 67.7% | 77.8% | – | – | – |
| CC(=C/C=C/C(C)=C/C=C/C=C(C)/C=C/C=C(C)/C=C/C(=O)N1CCOCC1)/C=C/C(=O)O [C2, 1-[1,4-oxazinamido](2E,4E,6E,8E,10E,12E,14E,16Z,18E)-4,8,13,17-tetramethylicosa-2,4,6,8,10,12,14,16,18-nonaenedioate] | 30 min | 186.5 ng · h/eye | 41 ng/eye | – | – | – | 33.9% | 22.3% | 49.1% | 34000 ng/mL | 30 min | 176.2 µg·h/mL |
| CC(=C/C=C/C(C)=C/C=C/C=C(C)/C=C/C=C(C)/C=C/C(=O)N1CCCCC1)/C=C/C(=O)O [C3, 1-[piperidinamido](2E,4E,6E,8E,10E,12E,14E,16Z,18E)-4,8,13,17-tetramethylicosa-2,4,6,8,10,12,14,16,18-nonaenedioate] | 30 min | 19.1 ng · h/eye | 5.1 ng/eye | 4050 ng/mL | 10.37 µg·h/mL | 30 min | 11.3% | 68.1% | 45.1% | – | – | – |
| CC(=C/C=C/C(C)=C/C=C/C=C(C)/C=C/C=C(C)/C=C/C(=O)NCCO)/C=C/C(=O)O [C4, 1-[2-hydroxyethanamido](2E,4E,6E,8E,10E,12E,14E,16Z,18E)-4,8,13,17-tetramethylicosa-2,4,6,8,10,12,14,16,18-nonaenedioate] | 30 min | 30.0 ng · h/eye | 10.2 ng/eye | 57100 ng/mL | 208.6 µg·h/mL | 60 min | 16.4% | 36% | 67.2% | – | – | – |
| CC(=C/C=C/C(C)=C/C=C/C=C(C)/C=C/C=C(C)/C=C/C(=O)N1CCCOCC1)/C=C/C(=O)O [C5, 1[1,4-oxazepanamido](2E,4E,6E,8E,10E,12E,14E,16Z,18E)-4,8,13,17-tetramethylicosa-2,4,6,8,10,12,14,16,18-nonaenedioate] | 30 min | 188.7 ng · h/eye | 31.4 ng/eye | 37700 ng/mL | 299.9 µg·h/mL | 60 min | 11.3% | 25.6% | 36% | – | – | – |
| CC(=C/C=C/C(C)=C/C=C/C=C(C)/C=C/C=C(C)/C=C/C(=O)N1CCSCC1)/C=C/C(=O)O [C6] | 30 min | 23.1 ng · h/eye | 3.9 ng/eye | 3950 ng/mL | 10.81 µg·h/mL | 30 min | – | 60.6% | 19.1% | – | – | – |
| CC(=C/C=C/C(C)=C/C=C/C=C(C)/C=C/C=C(C)/C=C/C(=O)NCCCN1CCOCC1)/C=C/C(=O)O [C8] | 60 min | 472.4 ng · h/eye | 56.8 ng/eye | 59800 ng/mL | 173.74 µg·h/mL | 30 min | 28.6% | 33.4% | 75.2% | – | – | – |

The next lines start with results.

| Tmax [1] | Eye Exposure 50 mg/kg p.o. AUC [1] | Eye CMax [1] | Cmax [2, 4] | Plasma Exposure [2, 4] | Tmax [2, 4] | Compound | viability at 5 µM [3] | viability at 10 µM [3] | viability at 20 µM [3] | Cmax ([2]; C57BL/6, mouse, in vivo, po, mice, p.o. 50 mg/kg in VitE-TPGS 20% in sodium bicarbonate buffer (0.1M), read-out: Plasma CMax) | Tmax ([2]; C57BL/6, mouse, in vivo, po, mice, p.o. 50 mg/kg in VitE-TPGS 20% in sodium bicarbonate buffer (0.1M), read-out: Plasma TMax) | Plasma Exposure ([2]; mice, p.o. 50 mg/kg in VitE-TPGS 20% in sodium bicarbonate buffer (0.1M), area under the curve) |
| --- | --- | --- | --- | --- | --- | --- | --- | --- | --- | --- | --- | --- |
| 60 min | 452.0 ng · h/eye | 53.1 ng/eye | 37900 ng/mL | 342.68 µg·h/mL | 60 min | CC(=C/C=C/C(C)=C/C=C/C=C(C)/C=C/C=C(C)/C=C/C(=O)N1CCC(O)C1)/C=C/C(=O)O (stereo in doubt) [C9, 1-[(S)-3-hydroxypyrrolidinamido](2E,4E,6E,8E,10E,12E,14E,16Z,18E)-4,8,13,17-tetramethylicosa-2,4,6,8,10,12,14,16,18-nonaenedioate] | 22.1% | 32% | 63.7% | – | – | – |
| 60 min | 238.4 ng · h/eye | 47.7 ng/eye | 35900 ng/mL | 190 µg·h/mL | 60 min | CC(=C/C=C/C(C)=C/C=C/C=C(C)/C=C/C=C(C)/C=C/C(=O)N1CCC(O)C1)/C=C/C(=O)O (stereo in doubt) [C11, 1-[(R)-3-hydroxypyrrolidinamido](2E,4E,6E,8E,10E,12E,14E,16Z,18E)-4,8,13,17-tetramethylicosa-2,4,6,8,10,12,14,16,18-nonaenedioate] | 21.1% | 39.3% | 63.4% | – | – | – |
| 30 min | 18.5 ng · h/eye | 7 ng/eye | 6890 ng/mL | 17.29 µg·h/mL | 30 min | CC(=C/C=C/C(C)=C/C=C/C=C(C)/C=C/C=C(C)/C=C/C(=O)N1CCCC1)/C=C/C(=O)O [C7, 1-pyrrolidinamido-(2E,4E,6E,8E,10E,12E,14E,16Z,18E)-4,8,13,17-tetramethylicosa-2,4,6,8,10,12,14,16,18-nonaenedioate] | 5.2% | 52.8% | – | – | – | – |

Reference: patent US12215067B2, “Chemical compounds targeting the eye and use thereof in the treatment of eye diseases” (BIOPHYTIS, priority 2019, dated 2025)
